Patent US20170248582A1, “Mixed Spheroids of Melanocytes and Keratinocytes” (Syntivia, priority 2014, published 2017)
Entries after “also recorded” stand apart in the source; their conditions may differ.

Assays:
[1] = tested on: mixed spheroids of keratinocytes and melanocytes; assay: Assay of melanin on mixed spheroids after treatment (photometry, melanin / total proteins); format: cell-based, Human
Procedure: The cells were lysed in a solution of 1M NaOH+10% DMSO and incubated 30 min at 90° C. A standard range was prepared with synthetic melanin and read-out performed at a wavelength of 405 nm. Assay of total proteins was performed on the lysate of melanin assay using the microBCA kit in accordance with the supplier's instructions. A standard range was prepared with BSA and read-out was performed at a wavelength of 605 nm. The results are expressed in the form of a ratio between the assay of melanin and assay of total proteins. 24 h after seeding, the mixed spheroids of the invention such as prepared in Example 1, and after removal of Matrigel® by washing with PBS, were treated with 300 μM IBMX or 500 μM PTU for 5 days with renewal of treatment at 4 days. The melanin was assayed as explained in Example 3.

[2] = tested on: genes MITF, TYR, TYRP1 and PMEL in mixed spheroids of keratinocytes and melanocytes; assay: Quantification of pigmentation gene expression by quantitative PCR in mixed spheroids; format: cell-based, Human; details: 300 μM IBMX for 24 h, normalised to GAPDH, vs non-treated control
Procedure: 48 h after their seeding the mixed spheroids of the invention such as prepared in Example 1, and after removal of Matrigel® by washing with PBS, were treated with 300 μM IBMX for 24 h. The spheroids were collected and washed with PBS after 24 h treatment with IBMX. The RNAs were extracted and reverse-transcribed to cDNA. Quantitative PCR was then performed to quantify the expression of the genes MITF, TYR, TYRP1 and PMEL. The expression of these genes was normalised by expression of the GAPDH housekeeping gene and compared with the non-treated control.

Row | Compound | global amount of melanin in the mixed spheroid / melanin production ([1]; 500 μM PTU for 5 days, compared with solvent control (EtOH), FIG. 8) | MITF expression, increased by a factor of [2] | expression of MITF gene ([2]; FIG. 9) | expression of PMEL gene ([2]; FIG. 9) | expression of TYR gene ([2]; FIG. 9) | expression of TYRP1 gene ([2]; FIG. 9) | induction of the amount of melanin in relation to total proteins ([1]; 300 μM IBMX for 5 days, renewal at 4 days, vs solvent control (DMSO)) | total amount of melanin in the mixed spheroid ([1]; 300 μM IBMX for 5 days, compared with solvent control (DMSO), FIG. 8)
1 | CCCc1cc(=O)[nH]c(=S)[nH]1 [PTU, propylthiouracil] | inhibits melanin production; also recorded: decrease in the global amount of melanin |  |  |  |  |  |  | 
2 | CC(C)Cn1c(=O)n(C)c(=O)c2[nH]cnc21 [IBMX, 3-isobutyl-1-methylxanthine] |  | 5 | induced; also recorded: expression increased | induced; also recorded: increased | induced; also recorded: increased | induced; also recorded: increased | 50% | increase in the total amount of melanin
